Measured values reported in PMC8033486 (Frontiers in Pharmacology, 2021).
Where a name gives a salt, the structure may show the parent alone. Read-outs that look alike come from different tables or passages of the source. Where a SMILES comes first, the peptide text is derived from it. The star is where a group is joined. Cbz = O=C(OCc1ccccc1)*

Experiments:
[1] = test system: SARS-CoV-2; assay: microbe, parasite or virus in culture; assay type: cell-based; details: for Inhibition of SARS-CoV-2-induced cytopathic effect, result in words: Vero E6
[2] = in vitro; details: African green monkey
[3] = CC50, Vero E6, no virus, 3 days
[4] = Vero E6, cytopathic effect 3 days after infection, repeated experiments
[5] = Severe acute respiratory syndrome coronavirus 2, Vero C1008, 72 h, Vero E6, cytopathic effect 3 days after infection, repeated experiments, read-out: IC50 (Mean +/- SD)
[6] = Severe acute respiratory syndrome coronavirus 2, Vero C1008, Vero E6, one representative experiment with two replicates, when combined, each drug at the same concentration, read-out: IC50 value of the particular graph

CC(=O)N[C@H]1C([C@H](O)[C@H](O)CO)O[C@@](O[C@@H]2C(O)[C@H](O[C@@H]3C(CO)OC(O)C(O)[C@H]3O)OC(CO)[C@@H]2O)(C(=O)[O-])C[C@H]1O.[Na+] (some centres unmarked) [3’ Sialyllactose Na Salt]
Inhibition of SARS-CoV-2-induced cytopathic effect, result in words [1]: not able to reduce viral-induced cytopathic effect

NC12CC3CC(CC(C3)C1)C2 [Amantadine]
CC50 at 3 days [2, 3]: > 100 µM | Inhibition of SARS-CoV-2-induced cytopathic effect, result in words [1]: only a partial inhibition at 100 μM

CC(C)CN(C[C@@H](O)[C@H](Cc1ccccc1)NC(=O)O[C@H]1CCOC1)S(=O)(=O)c1ccc(N)cc1 [Amprenavir]
CC50 at 3 days ([2]; CC50): > 100 µM | Inhibition of SARS-CoV-2-induced cytopathic effect, result in words [1]: exhibited activity at the non-toxic concentration of 100 µM

CC[C@H]1OC(=O)[C@H](C)[C@@H](O[C@H]2C[C@@](C)(OC)[C@@H](O)[C@H](C)O2)[C@H](C)[C@@H](O[C@@H]2O[C@H](C)C[C@H](N(C)C)[C@H]2O)[C@](C)(O)C[C@@H](C)CN(C)[C@H](C)[C@@H](O)[C@]1(C)O [Azithromycin]
CC50 at 3 days [2, 3]: > 100 µM

CCS(=O)(=O)N1CC(CC#N)(n2cc(-c3ncnc4[nH]ccc34)cn2)C1 [Baricitinib]
CC50 [2]: > 85 µM

CC(C)(C)NC(=O)N[C@H](C(=O)N1C[C@H]2[C@@H]([C@H]1C(=O)NC(CC1CCC1)C(=O)C(N)=O)C2(C)C)C(C)(C)C (some centres unmarked) [Boceprevir]
CC50 at 3 days ([2]; CC50): > 100 µM

CN(C)CCCN1c2ccccc2Sc2ccc(Cl)cc21 [Chlorpromazine]
CC50 at 3 days [2, 3]: > 18 µM | Inhibition of SARS-CoV-2-induced cytopathic effect, result in words [1]: we did not find any prominent effect

COc1cc2c(c(OC)c1OC)-c1ccc(OC)c(=O)cc1[C@@H](NC(C)=O)CC2 [Colchicine]
CC50 [2]: 0.63 µM

CC(C)CN(C[C@@H](O)[C@H](Cc1ccccc1)NC(=O)O[C@H]1CO[C@H]2OCC[C@H]21)S(=O)(=O)c1ccc(N)cc1 [Darunavir]
IC50 (Mean +/- SD) [1]: partially active at 100

O=C(O)c1nn(Cc2ccc(Cl)cc2Cl)c2ccccc12 [Diclondazolic acid (Lonidamine), Diclondazolic acid]
IC50 (Mean +/- SD) [1]: Not Active

C[C@H]1c2cccc(O)c2C(=O)C2=C(O)[C@]3(O)C(=O)C(C(N)=O)=C(O)[C@@H](N(C)C)[C@@H]3[C@@H](O)[C@@H]21 [Doxycycline]
CC50 at 3 days [2, 3]: > 100 µM

Nc1nc(=O)n([C@@H]2CS[C@H](CO)O2)cc1F [Emtricitabine]
CC50 at 3 days [2, 3]: > 100 µM | Inhibition of SARS-CoV-2-induced cytopathic effect, result in words [1]: failed to show any antiviral effect | IC50 (Mean +/- SD) [1, 4]: Not Active

CN(C)[C@@H]1C(O)=C(C(N)=O)C(=O)[C@@]2(O)C(O)=C3C(=O)c4c(O)c(NC(=O)CN5CCCC5)cc(F)c4C[C@H]3C[C@@H]12 [Eravacycline]
CC50 at 3 days [2, 3]: > 4 µM

NC(N)=Nc1nc(CSCCC(N)=NS(N)(=O)=O)cs1 [Famotidine]
CC50 at 3 days [2, 3]: > 100 µM | IC50 (Mean +/- SD) [1, 4]: Not Active

NC(=O)c1nc(F)c[nH]c1=O [Favipiravir]
CC50 at 3 days ([2]; CC50): > 100 µM | Inhibition of SARS-CoV-2-induced cytopathic effect, result in words [1]: only partial inhibitory activity at the non-toxic concentration of 100 µM

OC(Cn1cncn1)(Cn1cncn1)c1ccc(F)cc1F [Fluconazol]
CC50 at 3 days [2, 3]: > 100 µM

CC(C)CN(C[C@@H](OP(=O)(O)O)[C@H](Cc1ccccc1)NC(=O)O[C@H]1CCOC1)S(=O)(=O)c1ccc(N)cc1 [Fosamprenavir Calcium]
CC50 at 3 days [2, 3]: > 25 µM

Nc1ncnc2c([C@@H]3N[C@H](CO)[C@@H](O)[C@H]3O)c[nH]c12 [Galdesivir]
IC50 (Mean +/- SD) [1]: Not Active | Inhibition of SARS-CoV-2-induced cytopathic effect, result in words [1]: no antiviral effect

CCN(CCO)CCCC(C)Nc1ccnc2cc(Cl)ccc12 (centres unmarked) [Hydroxychloroquine]
CC50 at 3 days [2, 3]: > 80 µM | IC50 [1, 5]: 9.3 ± 11.1 µM | IC50 [1, 6]: 2.1 µM | Inhibition of SARS-CoV-2-induced cytopathic effect, result in words [1]: able to inhibit viral-induced cytopathic effects at concentrations where no cytotoxic effects of the drug were observed

CCC(C)n1ncn(-c2ccc(N3CCN(c4ccc(OCC5COC(Cn6cncn6)(c6ccc(Cl)cc6Cl)O5)cc4)CC3)cc2)c1=O (centres unmarked) [Itraconazole]
CC50 at 3 days [2, 3]: > 100 µM | IC50 [1, 5]: 79.4 µM | IC50 [1, 6]: 79.4 µM | IC50 ([1]; Vero E6, cytopathic effect 3 days after infection, repeated experiments, read-out: IC50 (Mean +/- SD)): 80 µM

Cc1cccc(C)c1OCC(=O)N[C@@H](Cc1ccccc1)[C@@H](O)C[C@H](Cc1ccccc1)NC(=O)[C@H](C(C)C)N1CCCNC1=O [Lopinavir]
CC50 at 3 days [2, 3]: > 87 µM | Inhibition of SARS-CoV-2-induced cytopathic effect, result in words [1]: inhibited SARS-CoV-2-induced cytopathic effect at the non-toxic concentration of 20 μM

CC(C)[C@H](NC(=O)OCc1ccccc1)C(=O)N[C@H](C=O)Cc1ccccc1 [MDL 28170] (Cbz-Val-Phe-aldehyde)
CC50 [2]: > 87 µM | IC50 ([1]; Severe acute respiratory syndrome coronavirus 2, Vero C1008, 72 h, read-out: IC50 (Mean +/- SD)): 0.14 µM | IC50 ([1]; Severe acute respiratory syndrome coronavirus 2, Vero C1008, read-out: IC50 value of the particular graph, Vero E6, one representative experiment with two replicates, when combined, each drug at the same concentration): 0.2 µM | Inhibition of SARS-CoV-2-induced cytopathic effect, result in words [1]: activity in the nanomolar range

OC(c1cc(C(F)(F)F)nc2c(C(F)(F)F)cccc12)C1CCCCN1 (centres unmarked) [Mefloquine hydrochloride]
CC50 at 3 days [2, 3]: > 100 µM
